For one experiment, the system named is ICR mice. The experiment is described as follows: Sleep of mice at subthreshold hypnotic dosage of sodium pentobarbital. The class given is in vivo, mouse. As to conditions: Diazepam 1 mg/kg; vs blank control. The protocol:
After adaptive feeding of mice, 50 qualified animals were selected according to their body weights and divided into 5 groups by Excel complete randomization: a blank control group, a positive control group (Diazepam), and high-, medium- and low-dosage groups of test product, with 10 animals in each group. Animals in each group should be administrated with drug solutions and vehicles. After 1 h of administration, the animals in each group were intraperitoneally injected with a maximum subthreshold dosage of sodium pentobarbital (firstly, a pre-experiment was conducted to determine a maximum subthreshold hypnotic dosage of sodium pentobarbital).

The test system of experiment [1] is human SHSY5Y neural tumor cells. The experiment is described as follows: H2O2-induced oxidative damage of SHSY5Y cells (MTT). The note with it: 1 μM, pre-protected 24 h, 250 μM H2O2 24 h. The class given is cell-based.
The subject of another experiment is hippocampal neurons. The experiment is described as follows: L-cysteine-induced neuronal excitotoxicity. The class given is cell-based, SD rats. The note with it: compound 1 μM, 24 h before inducer. The protocol: Experimental and analytical method: before the experiment, a 24-well cell culture plate was pretreated with Poly-D-lysine and placed in a cell incubator at 37° C. and 5% CO2 overnight. SD rats, 18 days pregnant, were ordered, brains of fetal rats (E18-19) were dissected, and hippocampal neurons in the brains were subjected to primary culture in a neuronal medium using a 24-well plate, and then cultured by a serum-free medium. The hippocampal neurons were cultured in a cell incubator at 37° C., 5% CO2 for 19 days (DIV19), then added with a compound to be tested (a final concentration of 1 μM) and a positive control AP5 [(2R)-amino-5-phosphonopentanoic acid(phosphonatopentanoate)] (a final concentration of 100 μM), cultured for 24 h, and then added with L-Cystine (400 μM) and NaHCO3 (10 mM). After 18 h, Hoechst3342 (2.5 μg/ml) was added for cell staining. The cells were placed in the incubator and cultured for 15 min, and photographed using the high-content fluorescence microscope, wherein 6 random non-overlapping fields were photographed for each duplicate well, and the total number of neurons and the number of dead neurons were counted with software Image J. The obtained data was used to determine whether there was a difference between a drug treatment group and a control group.
Compound treatment: 32 small molecule compounds in Embodiment 1 to Embodiment 19A were diluted with DMSO to a 1 mM mother solution; and 1 μL of mother solution was added to 1 ml of culture solution per well in a 24-well plate to a final concentration of 1 μM, wherein a positive control compound was […] of AP5 (100 mM mother solution), and a negative control was 1 μl of DMSO.

The subject of experiment [2] is U937 (histiocytic lymphoma cells). The experiment is described as follows: Cell proliferation assay, U937. The class given is cell-based. The note with it: Homo sapiens, U-937, 72 h. As for the experimental part:
(§1) • Experimental and analytical method: cells were inoculated into a 96-well cell culture plate with a lid at a maximum concentration of 10 μM for a test compound, and diluted in three folds to a series of test concentrations, and cells were incubated at 37° C., 5% CO2 for 72 h. The concentration of DMSO was 0.5%, 100 μl of medium was taken from each well. 100 μl of reagent (Celltitute Glo Assay Kit) was added to each well, and a flat plate was shaken on a plate shaker (protected from light) for 2 min. A culture plate was incubated (protected from light) at room temperature for 30 min. Chemiluminescence values were recorded by a multi-plate plate reader, and the experimental results were as follows:
(§2) U937 (histiocytic lymphoma cells), OCI-LY3 (human diffuse large B-cell lymphoma cells), U2932 (human diffuse large B-cell lymphoma cells), and HT cells (human mixed lymphoma cells) were analyzed in the table for experimental analysis of cell proliferation.

For experiment [3], the system named is OCI-LY3 (human diffuse large B-cell lymphoma cells). The experiment is described as follows: Cell proliferation assay, OCI-LY3. The class given is cell-based. The note with it: Homo sapiens, OCI-Ly3, 72 h. As for the experimental part: as §1, §2
The subject of experiment [4] is U2932 (human diffuse large B-cell lymphoma cells). The experiment is described as follows: Cell proliferation assay, U2932. The class given is cell-based. The note with it: U2932, 72 h. The protocol:
as §1, §2

The next experiment relates to male SD rats, TBI model. The experiment is described as follows: Acute traumatic brain injury (TBI) rat model. As to conditions: 80 mpk once a day, 7 days; vs solvent control (P<0.05). The class given is in vivo. The protocol:
• Experimental and analytical method: male SD rats were used in this experiment to establish a TBI rat model, which was randomly divided into: a solvent control group (8 rats), a test product Embodiment 13B (80 mpk, 10 rats), and a test product Embodiment 26 (80 mpk, 9 rats). After TBI surgery, drugs were administered by gavage once a day for 7 consecutive days.

In experiment [5] the test system is Lepr gene mutant (DB) mice. The experiment is described as follows: Blood glucose of DB mice. The class given is in vivo, mouse. As to conditions: 80 mpk by gavage once a day, from 8 to 20 weeks of age. An excerpt:
• Experimental and analytical method: leptin receptor gene (OB-R) was also known as diabetes gene (db), leptin receptor (Lepr) is closely related to obesity, hypertension, diabetes, lipid metabolism disorders, etc. The courses of these diseases are greatly influenced by the genetic background. Topical insulin can not control the increase in blood glucose and gluconeogenesis levels in the liver. Gene editing technologies and embryo injection technologies were used to construct Lepr gene mutant mice. […] The blood glucose in each mouse of this strain began to rise sharply at 8 weeks of age, reaching 30 mmol/L, while the blood glucose of the normal background was only about 6 mmol/L. We started drug delivery from 8 weeks of age. Test small molecules were Embodiment 28, Embodiment 29 and Embodiment 30, all of which were at a dosage of 80 mpk, and delivered by gavage once a day.

The test system of experiment [6] is Raji-Luc hematologic tumor cells in NOD-Scid immunodeficient mice. The experiment is described as follows: NOD-Scid mice inoculated with hematologic tumor cells Raji-Luc. As to conditions: 100 mpk by gavage once a day.

The structures appear in SMILES notation. Read-outs that look alike come from different tables or passages of the source.

Turning to `CN1C(=O)CN=C(c2ccccc2)c2cc(Cl)ccc21` [Diazepam, reference compound], in the experiment on ICR mice, the sleep latency entry is given as “significantly shortened” and the sleep time entry is “significantly prolonged”.

In the case of `C[C@H]1CC[C@@]2(OC1)O[C@H]1C[C@H]3[C@@H]4CC[C@@H]5CC(NC(=O)C6CCN(C)CC6)CC[C@]5(C)[C@H]4CC[C@]3(C)[C@H]1[C@@H]2C` (stereo partly shown) [Embodiment 2], the “protection of H2O2-induced neural tumor cell damages” value (from here on “protection”) in [1] is “significantly protected”. The “protective effects on L-Cystine (400 μM)-induced neuronal excitotoxicity” value in the experiment on hippocampal neurons was “protective effects”.

In the case of `C[C@H]1CC[C@@]2(OC1)O[C@H]1C[C@@H]3[C@H](CC[C@H]4[C@H]3CC[C@@H]3CC(NC(=O)CC(=O)NCC5CCN(C)CC5)CC[C@@]34C)[C@H]1[C@@H]2C` (stereo partly shown) [Embodiment 7], the “protection” value in experiment [1] is on record as “significantly protected”.

What is called IC50 is the point on the concentration scale where inhibition reaches its midpoint. Turning to `C[C@H]1CC[C@@]2(OC1)O[C@H]1C[C@H]3[C@@H]4CC[C@@H]5CC(NC(=O)CCN6CCN(CCN(C)C)CC6)CC[C@]5(C)[C@H]4CC[C@]3(C)[C@H]1[C@@H]2C` (stereo partly shown) [Embodiment 13], in experiment [1], the “protection” value is on record as “significantly protected”. Also, the “protective effects on L-Cystine (400 μM)-induced neuronal excitotoxicity” value in the experiment on hippocampal neurons is “protective effects”. In addition, the concentration for half-maximal inhibition (IC50) worked out at 2.28 µM in [2] (low sugar, read-out: U937 (IC50, uM) Low sugar); 4.04 µM in [2] (normal sugar, read-out: U937 (IC50, uM) Normal sugar); 4.4 µM in experiment [3]; 1.19 µM in experiment [4].

For the compound `C[C@H]1CC[C@@]2(OC1)OC1CC3C4CC[C@@H]5C[C@@H](NC(=O)CC(=O)NCCO)CC[C@]5(C)C4CC[C@]3(C)C1[C@@H]2C` (stereo partly shown) [Embodiment 14A], in experiment [1], the “protection” value is “significantly protected”.

Take `C[C@H]1CC[C@@]2(OC1)O[C@H]1C[C@H]3[C@@H]4CC[C@@H]5CC(NC(=O)CC(=O)N6CCN(C7CCN(C)CC7)CC6)CC[C@]5(C)C4CC[C@]3(C)[C@H]1[C@@H]2C` (stereo partly shown) [Embodiment 26]: in the experiment on male SD rats, TBI model, the “early brain apoptosis rates” value was “significantly lower” and the total apoptosis rates entry was “significantly lower”.

As to `COC(=O)N1CCN(C(=O)CC(=O)NC2CC[C@]3(C)C4CC[C@]5(C)[C@@H]6[C@H](C[C@H]5[C@@H]4CC[C@@H]3C2)O[C@]2(CC[C@H](C)CO2)[C@H]6C)CC1` (stereo partly shown) [Embodiment 28], the blood glucose result in experiment [5] is recorded as “certain blood glucose-reducing effects”.

`CCN1CCC(N2CCN(C(=O)CC(=O)NC3CC[C@]4(C)C5CC[C@]6(C)[C@@H]7[C@H](C[C@H]6[C@@H]5CC[C@@H]4C3)O[C@]3(CC[C@H](C)CO3)[C@H]7C)CC2)CC1` (stereo partly shown) [Embodiment 29]: the blood glucose entry in experiment [5] is given as “certain blood glucose-reducing effects”.

On to `C[C@H]1CC[C@@]2(OC1)O[C@H]1C[C@H]3[C@@H]4CC[C@@H]5CC(NC(=O)CC(=O)N6CCC(N7CCN(CC#N)CC7)CC6)CC[C@]5(C)C4CC[C@]3(C)[C@H]1[C@@H]2C` (stereo partly shown) [Embodiment 30], for which the blood glucose entry in [5] was “best blood glucose-reducing effect and could reach the level of normal background mice”.

Consider `C[C@H]1CC[C@@]2(OC1)O[C@H]1C[C@H]3[C@@H]4CC[C@@H]5CC(NC(=O)CC(=O)N6CCCN(CCN(C)C)CC6)CC[C@]5(C)C4CC[C@]3(C)[C@H]1[C@@H]2C` (stereo partly shown) [Embodiment 39], for which, in experiment [6], the “tumor killing effect (in-vivo fluorescence intensity)” value is “relatively good tumor killing effects”.

Regarding `C[C@H]1CC[C@@]2(OC1)O[C@H]1C[C@H]3[C@@H]4CC[C@@H]5CC(NC(=O)CC(=O)N6CCN(CCn7ccnc7)CC6)CC[C@]5(C)C4CC[C@]3(C)[C@H]1[C@@H]2C` (stereo partly shown) [Embodiment 40], the “tumor killing effect (in-vivo fluorescence intensity)” value in experiment [6] is listed as “relatively good tumor killing effects”.
